Test results: US11307205B2, “Non-radioactive cytotoxicity assays” (University of Southern California, priority 2016, dated 2022)

Experiments:
[1] = tested on: BC-3-pLenti-GLuc cells; test: Matador assay, drug induced cytotoxicity, BC-3; format: cell-based; settings: 96 hours, different doses
Description: (§2) The cell pellets were lysed in 1× Renilla Luciferase Assay Lysis Buffer by diluting one volume of 5× Renilla Luciferase Assay Lysis Buffer (Promega, Cat #E2820) into four volumes of distilled water. GLuc activity was measured in the cellular supernatants and cell lysates fractions separately in triplicate by addition of 0.25× coelentrazine assay buffer (15 μl of assay buffer added to 15 μl of sample in a 384 well plate) to each fraction. For each sample, the average GLuc activity in the cellular supernatant was divided by the average GLuc activity in the cell lysates to normalize for difference in the number of GLuc expressing cells.

[2] = tested on: BCBL-1-pLenti-GLuc cells; test: Matador assay, drug induced cytotoxicity, BCBL-1; settings: 96 hours, different doses
Description: as §2

[3] = tested on: CAR CD8SP2-CD19MM-(vL-vH)-Myc-BBz-T2A-PAC T cell induced death of RAJI cells stably expressing GLuc; test: Matador assay, drug modulation of CAR-T cell induced lysis of RAJI-GLuc cells; format: cell-based, Human; settings: E:T 5:1, 4 hours co-culture; Dasatinib 50 nM and 100 nM
Description: Human peripheral blood T cells isolated using CD3 magnetic beads were infected with lentiviruses expressing the CAR construct CD8SP2-CD19MM-(vL-vH)-Myc-BBz-T2A-PAC [SEQ ID NO: 82] targeting CD19 and selected with puromycin. CAR-T cells were pre-incubated with the indicated concentrations of Dasatinib and Imatinib for approximately 30 min at 37° C. The drug-treated and untreated T cells were plated in a white 384-well plate. […] Dasatinib (Das) and Imatinib (Imat) were added to the wells to maintain the final concentrations as indicated. […] Therefore, the assay can be used to screen for and identify candidate compounds that modulate the activity of cytotoxic cells, such as cytotoxic T cells, NK cells, CAR-T cells and T cells expressing engineered TCRs.

[4] = tested on: L428-GLuc cells; test: Matador assay, antibody drug conjugate induced cell death, L428; format: cell-based; settings: 5 days of drug treatment
Description: (§1) We next used the Matador cytotoxicity assay to measure cell death induced by CD30-directed antibody-drug-conjugate (ADC), Brentuximab vedotin (Adcetris). […] Similarly, Jurkat cells were transduced with MSCVhygro-GLuc-HA-G02 (SEQ ID NO: 95) retroviral vector and selected with hygromycin to generate Jurkat-GLuc stable cell line. These GLuc-expressing target cells were plated at a concentration of 10×10^5 cells/well in a flat-bottom 24 well plate in 500 μl of phenol-red-free RPMI medium with 10% FBS and treated with the indicated dose of Brentuximab vedotin. After 5 days of drug treatment, the cells were mixed well, collected in 1.5 ml microfuge tubes and divided into 3 groups of 166 μl each. For the first group, the cells with cell supernatant were directly assayed for luciferase activity by plating 30 μl of cells/well in a white 384 well plate in triplicate. For the second group, 166 μl of cells were centrifuged and only cell supernatants were collected in a new tube and plated at 30 μl/well in triplicate in a white 384 well plate. […] The luciferase activity was precisely measured by BioTek synergy plate reader by injecting 0.5× CTZ assay buffer containing native coeloentrazine into each well of the 384 well plate in a well mode. […]

[5] = tested on: KMH2-GLuc cells; test: Matador assay, antibody drug conjugate induced cell death, KMH2; format: cell-based; settings: 5 days of drug treatment
Description: as §1

[6] = tested on: Jurkat-GLuc cells; test: Matador assay, antibody drug conjugate induced cell death, Jurkat; format: cell-based; settings: 5 days of drug treatment
Description: as §1

[7] = tested on: RAJI cells expressing GLuc; test: Antibody-dependent cellular cytotoxicity (ADCC) Matador assay; format: cell-based
Description: Antibody-dependent cellular cytotoxicity (ADCC) assay was performed performed essentially as described earlier (Teeling, French et al. 2004). To determine the cytotoxicity of Rituximab monoclonal antibody, the cell death was assessed using Matador assay. Peripheral Blood Mononuclear Cells (PBMC) were isolated by Ficoll-Hypaque gradient centrifugation from buffy coat cells obtained from a de-identified healthy donor as a source of natural effector. […] The cells were either left untreated, or treated with 1 μg/ml or 10 μg/ml of Rituximab. The plates were incubated at 37° C. for 4 hours in a CO2 incubator. After incubation for 4 hours, the cell death was assessed by luciferase assay by addition of CTZ assay buffer containing native coelentrazine to the wells as described earlier.

[8] = Stability of luciferases in cell culture supernatants at 37° C. under Matador assay conditions; format: physicochemical; settings: for time for which luminescence was stable: cell culture supernatants of K562 cells co-cultured with NK92MI
Description: Post-incubation, the cell-free supernatants were divided into 7 different tubes and frozen immediately at −80° C. The tubes were then incubated at 37° C. for 0, 0.5, 1, 2, 4, 6, and 24 hours.
Although thermostable luciferases are stable at 37° C., it was not obvious whether thermostability is the only criteria for stability of a reporter under the conditions used in the cytotoxicity assays. Thus, a thermostable luciferase could be degraded under the culture conditions of the cytotoxicity assay due to the activity of proteases that are present in the serum or are released during the process of cell death. Therefore, to examine whether thermostable luciferases are suitable for inclusion in the Matador cytotoxicity assay, K562 cells stably expressing LucPPe-146-1H2 mutant were plated in a 6-well plate, treated with media alone (control) or co-cultured with NK92MI at Effector:Target (E:T) ratio of 1:1 for 4 hours. After incubation, cell-free supernatants were transferred into 7 different tubes and frozen immediately at −80° C. The tubes were directly transferred to 37° C. (from −80° C.) and were incubated for indicated time periods (0 to 24 hours). The luminescence was measured by adding D-luciferin containing assay buffer directly to each well in well mode. […] Furthermore, the luminescence signal was stable in the cell culture medium for nearly 4-6 hours.

[9] = cited from earlier work
[10] = Stability of luciferase activity in supernatants after freezing and thawing; format: physicochemical; settings: supernatants frozen, thawed two weeks later
Description: Two weeks later, the supernatants were thawed and then re-assayed after addition of coeloentrazine.

## COc1c(C)cnc(Cn2cnc3c(Cl)nc(N)nc32)c1C [BIIB021]
[1]
  GLuc activity in the supernatant normalized to cell lysates: significant increase in GLuc activity in the supernatant
[2]
  GLuc activity in the supernatant normalized to cell lysates: significant increase in GLuc activity in the supernatant

## Cc1ccc(NC(=O)c2ccc(CN3CCN(C)CC3)cc2)cc1Nc1nccc(-c2cccnc2)n1 [Imatinib]
[3]
  CAR-T cell induced cell death (GLuc activity): no effect

## Cc1sc2c(c1C)C(c1ccc(Cl)cc1)=N[C@@H](CC(=O)OC(C)(C)C)c1nnc(C)n1-2 [JQ1]
[1]
  GLuc activity in the supernatant normalized to cell lysates: significant increase in GLuc activity in the supernatant
[2]
  GLuc activity in the supernatant normalized to cell lysates: significant increase in GLuc activity in the supernatant

## Brentuximab vedotin
[4]
  GLuc activity in cell supernatant normalized for GLuc activity in cell lysates: significant increase in GLuc activity in cell supernatant
[4]; not normalized
  GLuc activity in the supernatant: increase in GLuc activity in the supernatant
[5]
  GLuc activity in cell supernatant normalized for GLuc activity in cell lysates: significant increase in GLuc activity in cell supernatant
[5]; not normalized
  GLuc activity in the supernatant: increase in GLuc activity in the supernatant
[6]
  GLuc activity in cell supernatant normalized for GLuc activity in cell lysates: significant increase in GLuc activity in cell supernatant
[6]; not normalized
  GLuc activity in the supernatant: increase in GLuc activity in the supernatant

## rituximab: Rituximab monoclonal antibody, obtained from Genentech
[7]; RAJI cells stably expressing NLuc
  luciferase activity: Essentially similar results
[7]; in the presence of PBMC, 4 hours, vs untreated cells
  increase in GLuc activity: greater than 10 fold
[7]; in the presence of PBMC, 1 μg/ml and 10 μg/ml
  luciferase activity: increase in luciferase activity
[7]; rituximab alone, 1 μg/ml and 10 m/ml, 4 hours, vs untreated cells
  luciferase activity: increase in luciferase activity

B1: NLuc: NanoLuc, SEQ ID NO: 32 (protein)
chain: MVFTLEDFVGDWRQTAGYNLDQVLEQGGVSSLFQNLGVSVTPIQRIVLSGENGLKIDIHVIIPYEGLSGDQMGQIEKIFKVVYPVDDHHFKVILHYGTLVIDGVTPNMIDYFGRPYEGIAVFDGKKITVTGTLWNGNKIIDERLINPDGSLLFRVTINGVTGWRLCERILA
modifications: NLuc (NanoLuc)
[8]
  time for which luminescence was stable: 24 h
[9]; 37° C.
  time activity is retained in culture medium: > 15 h
[9]; configured for glow-type assays
  specific activity relative to firefly or Renilla luciferases: ~150 fold

B2: Mluc7: Metrida longa Luc7 M43L/M110L variant, SEQ ID NO: 34 (protein)
chain: MNPTVNNDVNRGKMPGKKLPLEVLIELEANAFKAGCTRGCLICLSKIKCTAKMKQYIPGRCHDYGGDKKTGQAGIVGAIVDIPEISGFKEMEPLEQFIAQVDLCADCTTGCLKGLANVKCSELLKKWLPDRCASFADKIQKEAHNIKGLAGDR
modifications: MLuc7 (Metrida longa Luc7) M43L/M110L variant
[8]
  time for which luminescence was stable: 24 h

B3: TLuc16: TurboLuc16, SEQ ID NO: 33 (protein)
chain: MEAEAERGKLPGKKLPLEVLIELEANARKAGCTRGCLICLSKIKCTAKMKKYIPGRCADYGGDKKTGQAGIVGAIVDIPEISGFKEMEPMEQFIAQVDRCADCTTGCLKGLANVKCSDLLKKWLPGRCATFADKIQSEVDNIKGLAGD
modifications: TLuc (TurboLuc16)
[8]
  time for which luminescence was stable: 24 h

B4: LucPPe-146-1H2: thermostable luciferase from Photuris pennsylvanica, SEQ ID NO: 51 (protein)
chain: MADKNILYGPEPFYPLEDGTAGEQMFDALSRYAAIPGCIALTNAHTKENVLYEEFLKLSCRLAESFKKYGLKQNDTIAVCSENSLQFFLPVIASLYLGIIVAPVNDKYIERELIHSLGIVKPRIVFCSKNTFQKVLNVKSKLKSIETIIILDLNEDLGGYQCLNNFISQNSDSNLDVKKFKPYSFNRDDQVASIMFSSGTTGLPKGVMLTHKNIVARFSIAKDPTFGNAINPTSAILTVIPFHHGFGMMTTLGYFTCGFRVVLMHTFEEKLFLQSLQDYKVESTLLVPTLMAFLAKSALVEKYDLSHLKEIASGGAPLSKEIGEMVKKRFKLNFVRQGYGLTETTSAVLITPKGDAKPGSTGKIVPLHAVKVVDPTTGKILGPNEPGELYFKGPMIMKGYYNNEEATKAIIDNDGWLRSGDIAYYDNDGHFYIVDRLKSLIKYKGYQVAPAEIEGILLQHPYIVDAGVTGIPDEAAGELPAAGVVVQTGKYLNEQIVQDYVASQVSTAKWLRGGVKFLDEIPKGSTGKIDRKVLRQMLEKHTNG
modifications: LucPPe-146-1H2
[8]; supernatants of K562 LucPPe-146-1H2 cells
  time for which luminescence signal was stable in the cell culture medium: 4 to 6 h

B5: Renilla Luc: Renilla Luc, SEQ ID NO: 49 (protein)
chain: MASKVYDPEQRKRMITGPQWWARCKQMNVLDSFINYYDSEKHAENAVIFLHGNAASSYLWRHVVPHIEPVARCIIPDLIGMGKSGKSGNGSYRLLDHYKYLTAWFELLNLPKKIIFVGHDWGACLAFHYSYEHQDKIKAIVHAESVVDVIESWDEWPDIEEDIALIKSEEGEKMVLENNFFVETMLPSKIMRKLEPEEFAAYLEPFKEKGEVRRPTLSWPREIPLVKGGKPDVVQIVRNYNAYLRASDDLPKMFIESDPGFFSNAIVEGAKKFPNTEFVKVKGLHFSQEDAPDEMGKYIKSFVERVLKNEQ
modifications: RLuc (Renilla Luc)
[10]
  luciferase activity after freezing and thawing: no major change
